From ChEMBL document CHEMBL1201862, “PubChem BioAssay data set” (2004)
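Each compound was tested at five concentrations against cells in 96-well plates for 48 hours. GI50 marks 50% less growth.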 Activity calls are given as the source filed them. Rule as the data show it: active = GI50 up to about 1.1 µM and inactive = higher.

How the values were obtained:
Test in all cases: growth of human tumour cells (NCI), 48 h
SNB-75 = system: SNB-75
DLD-1 = system: DLD-1
DMS-273 = system: DMS-273
NCI-H23 = system: NCI-H23
A549 = system: A549
SW-620 = system: SW-620
CAKI-1 = system: CAKI-1
KM-20L2 = system: KM-20L2
HL-60 = system: HL-60
CCRF-CEM = system: CCRF-CEM
SN12C = system: SN12C
A498 = system: A498
786-0 = system: 786-0
ACHN = system: ACHN
UO-31 = system: UO-31
SK-MEL-2 = system: SK-MEL-2
SNB-19 = system: SNB-19
NCI-H226 = system: NCI-H226
OVCAR-5 = system: OVCAR-5
TK-10 = system: TK-10
OVCAR-3 = system: OVCAR-3
HCC 2998 = system: HCC 2998
UACC-62 = system: UACC-62
U-251 = system: U-251
Malme-3M = system: Malme-3M
SK-MEL-5 = system: SK-MEL-5
HOP-18 = system: HOP-18
HOP-92 = system: HOP-92
KM12 = system: KM12
SF-539 = system: SF-539
OVCAR-8 = system: OVCAR-8
M19-MEL = system: M19-MEL
OVCAR-4 = system: OVCAR-4
SF-295 = system: SF-295
SR = system: SR
RXF 393 = system: RXF 393
MOLT-4 = system: MOLT-4
M14 = system: M14
NCI-H460 = system: NCI-H460
SNB-78 = system: SNB-78
RPMI-8226 = system: RPMI-8226
SF-268 = system: SF-268
UACC-257 = system: UACC-257
DMS-114 = system: DMS-114
LXFL 529 = system: LXFL 529
HCT-15 = system: HCT-15
HCT-116 = system: HCT-116
HT-29 = system: HT-29
K562 = system: K562
SK-MEL-28 = system: SK-MEL-28
EKVX = system: EKVX
LOX IMVI = system: LOX IMVI
HOP-62 = system: HOP-62
IGROV-1 = system: IGROV-1
COLO 205 = system: COLO 205
SK-OV-3 = system: SK-OV-3
NCI-H522 = system: NCI-H522

CSCSCC(CO)NC(=O)/C=C/c1c(C)nc(O)nc1O (centres undefined)
GI50 (SNB-75): > 100 µM (inactive) | GI50 (DLD-1): > 100 µM (inactive) | GI50 (DMS-273): > 100 µM (inactive) | GI50 (NCI-H23): > 100 µM (inactive) | GI50 (A549): > 100 µM (inactive) | GI50 (SW-620): > 100 µM (inactive) | GI50 (CAKI-1): 56.6 µM (inactive) | GI50 (KM-20L2): 46.8 µM (inactive) | GI50 (HL-60): > 100 µM (inactive) | GI50 (CCRF-CEM): 44.4 µM (inactive) | GI50 (SN12C): > 100 µM (inactive) | GI50 (A498): > 100 µM (inactive) | GI50 (786-0): > 100 µM (inactive) | GI50 (ACHN): > 100 µM (inactive) | GI50 (UO-31): > 100 µM (inactive) | GI50 (SK-MEL-2): 89.9 µM (inactive) | GI50 (SNB-19): 28.8 µM (inactive) | GI50 (NCI-H226): > 100 µM (inactive) | GI50 (OVCAR-5): > 100 µM (inactive) | GI50 (TK-10): > 100 µM (inactive) | GI50 (OVCAR-3): 26.4 µM (inactive) | GI50 (HCC 2998): > 100 µM (inactive) | GI50 (UACC-62): > 100 µM (inactive) | GI50 (U-251): 64.3 µM (inactive) | GI50 (Malme-3M): > 100 µM (inactive) | GI50 (SK-MEL-5): > 100 µM (inactive) | GI50 (HOP-18): > 100 µM (inactive) | GI50 (HOP-92): > 100 µM (inactive) | GI50 (KM12): > 100 µM (inactive) | GI50 (SF-539): > 100 µM (inactive) | GI50 (OVCAR-8): > 100 µM (inactive) | GI50 (M19-MEL): 84.3 µM (inactive) | GI50 (OVCAR-4): 37 µM (inactive) | GI50 (SF-295): > 100 µM (inactive) | GI50 (SR): 56.4 µM (inactive) | GI50 (RXF 393): > 100 µM (inactive) | GI50 (MOLT-4): 96.6 µM (inactive) | GI50 (M14): > 100 µM (inactive) | GI50 (NCI-H460): > 100 µM (inactive) | GI50 (SNB-78): > 100 µM (inactive) | GI50 (RPMI-8226): > 100 µM (inactive) | GI50 (SF-268): 30.8 µM (inactive) | GI50 (UACC-257): > 100 µM (inactive) | GI50 (DMS-114): 64.9 µM (inactive) | GI50 (LXFL 529): > 100 µM (inactive) | GI50 (HCT-15): > 100 µM | GI50 (HCT-116): > 100 µM (inactive) | GI50 (HT-29): > 100 µM (inactive) | GI50 (K562): 39.7 µM (inactive) | GI50 (SK-MEL-28): > 100 µM (inactive) | GI50 (EKVX): 57.1 µM (inactive) | GI50 (LOX IMVI): > 100 µM (inactive)

Cc1c(C(=O)NCCO)[n+]([O-])c2cc(Cl)ccc2[n+]1[O-]
GI50 (SNB-75): 48.5 µM (inactive) | GI50 (DLD-1): > 100 µM (inactive) | GI50 (DMS-273): > 100 µM (inactive) | GI50 (NCI-H23): > 100 µM (inactive) | GI50 (A549): > 100 µM (inactive) | GI50 (SW-620): > 100 µM (inactive) | GI50 (KM-20L2): > 100 µM (inactive) | GI50 (HL-60): > 100 µM (inactive) | GI50 (CCRF-CEM): > 100 µM (inactive) | GI50 (SN12C): > 100 µM (inactive) | GI50 (A498): > 100 µM (inactive) | GI50 (786-0): > 100 µM (inactive) | GI50 (ACHN): > 100 µM (inactive) | GI50 (UO-31): > 100 µM (inactive) | GI50 (SNB-19): > 100 µM (inactive) | GI50 (OVCAR-5): > 100 µM (inactive) | GI50 (TK-10): > 100 µM (inactive) | GI50 (OVCAR-3): > 100 µM (inactive) | GI50 (HCC 2998): > 100 µM (inactive) | GI50 (UACC-62): > 100 µM (inactive) | GI50 (U-251): > 100 µM (inactive) | GI50 (Malme-3M): > 100 µM (inactive) | GI50 (HOP-62): > 100 µM (inactive) | GI50 (SK-MEL-5): > 100 µM (inactive) | GI50 (HOP-18): > 100 µM (inactive) | GI50 (HOP-92): > 100 µM (inactive) | GI50 (KM12): > 100 µM (inactive) | GI50 (SF-539): > 100 µM (inactive) | GI50 (OVCAR-8): > 100 µM (inactive) | GI50 (M19-MEL): > 100 µM (inactive) | GI50 (OVCAR-4): > 100 µM (inactive) | GI50 (SF-295): > 100 µM (inactive) | GI50 (SR): > 100 µM (inactive) | GI50 (IGROV-1): > 100 µM (inactive) | GI50 (RXF 393): > 100 µM (inactive) | GI50 (MOLT-4): > 100 µM (inactive) | GI50 (M14): > 100 µM (inactive) | GI50 (NCI-H460): > 100 µM (inactive) | GI50 (SNB-78): > 100 µM (inactive) | GI50 (RPMI-8226): > 100 µM (inactive) | GI50 (SF-268): > 100 µM (inactive) | GI50 (COLO 205): > 100 µM (inactive) | GI50 (UACC-257): > 100 µM (inactive) | GI50 (DMS-114): > 100 µM (inactive) | GI50 (LXFL 529): > 100 µM (inactive) | GI50 (SK-OV-3): 86.9 µM (inactive) | GI50 (HCT-15): > 100 µM | GI50 (HCT-116): > 100 µM (inactive) | GI50 (HT-29): > 100 µM (inactive) | GI50 (K562): > 100 µM (inactive) | GI50 (SK-MEL-28): > 100 µM (inactive) | GI50 (EKVX): > 100 µM (inactive) | GI50 (LOX IMVI): > 100 µM (inactive)

C=CCOC(C)n1c(C)cc(=O)n(C(C)OCC=C)c1=O (centres undefined)
GI50 (SNB-75): > 100 µM (inactive) | GI50 (DLD-1): > 100 µM (inactive) | GI50 (DMS-273): > 100 µM (inactive) | GI50 (NCI-H23): > 100 µM (inactive) | GI50 (A549): > 100 µM (inactive) | GI50 (SW-620): > 100 µM (inactive) | GI50 (KM-20L2): > 100 µM (inactive) | GI50 (HL-60): > 100 µM (inactive) | GI50 (CCRF-CEM): > 100 µM (inactive) | GI50 (SN12C): > 100 µM (inactive) | GI50 (A498): > 100 µM (inactive) | GI50 (786-0): > 100 µM (inactive) | GI50 (ACHN): > 100 µM (inactive) | GI50 (UO-31): > 100 µM (inactive) | GI50 (SNB-19): > 100 µM (inactive) | GI50 (NCI-H226): > 100 µM (inactive) | GI50 (HCC 2998): > 100 µM (inactive) | GI50 (UACC-62): > 100 µM (inactive) | GI50 (U-251): > 100 µM (inactive) | GI50 (Malme-3M): > 100 µM (inactive) | GI50 (HOP-62): > 100 µM (inactive) | GI50 (SK-MEL-5): > 100 µM (inactive) | GI50 (HOP-18): > 100 µM (inactive) | GI50 (HOP-92): 72.1 µM (inactive) | GI50 (SF-539): > 100 µM (inactive) | GI50 (OVCAR-8): > 100 µM (inactive) | GI50 (M19-MEL): > 100 µM (inactive) | GI50 (OVCAR-4): > 100 µM (inactive) | GI50 (SF-295): > 100 µM (inactive) | GI50 (SR): > 100 µM (inactive) | GI50 (IGROV-1): > 100 µM (inactive) | GI50 (RXF 393): > 100 µM (inactive) | GI50 (MOLT-4): > 100 µM (inactive) | GI50 (M14): > 100 µM (inactive) | GI50 (NCI-H522): > 100 µM (inactive) | GI50 (SNB-78): > 100 µM (inactive) | GI50 (RPMI-8226): > 100 µM (inactive) | GI50 (SF-268): > 100 µM (inactive) | GI50 (COLO 205): > 100 µM (inactive) | GI50 (UACC-257): > 100 µM (inactive) | GI50 (DMS-114): > 100 µM (inactive) | GI50 (LXFL 529): > 100 µM (inactive) | GI50 (SK-OV-3): > 100 µM (inactive) | GI50 (HCT-15): > 100 µM | GI50 (HCT-116): > 100 µM (inactive) | GI50 (HT-29): > 100 µM (inactive) | GI50 (K562): > 100 µM (inactive) | GI50 (SK-MEL-28): > 100 µM (inactive) | GI50 (EKVX): > 100 µM (inactive)
